Data published in US12472272B2, “Radiolabelled compounds for diagnosis or treatment of prostate-specific membrane antigen- expressing cancer” (PROVINCIAL HEALTH SERVICES AUTHORITY, priority 2019, dated 2025).

How the values were obtained:
LNCaP tumors = assay: PET/CT imaging of ^68Ga-labeled tracers; format: in vivo, mice; details: FIG. 3
Procedure: (§1) Imaging and biodistribution experiments were performed using NODSCID 1L2RγKO male mice. Mice were anesthetized by inhalation with 2% isoflurane in oxygen, and implanted subcutaneously with 1×10^7 LNCaP cells behind left shoulder. Mice were imaged or used in biodistribution studies when the tumor grew up to reach 5-8 mm in diameter during 5-6 weeks.
(§2) PET imaging experiments were conducted using Siemens Inveon micro PET/CT scanner. Each tumor bearing mouse was injected 6-8 MBq of Ga-68 labeled tracer through the tail vein under anesthesia (2% isoflurane in oxygen). The mice were allowed to recover and roam freely in their cage. After 50 min, the mice were sedated again with 2% isoflurane in oxygen inhalation and positioned in the scanner. A 10-min CT scan was conducted first for localization and attenuation correction after segmentation for reconstructing the PET images. Then, a 10-min static PET imaging was performed to determined uptake in tumor and other organs. The mice were kept warm by a heating pad during acquisition. For imaging studies acquired at 3 h post-injection (p.i.), the mice were placed in the micro PET/CT scanner at 170 min p.i. Then, the CT acquisitions were conducted as described above, a 15-min static PET imaging was performed to determined uptake in tumor and other organs.

[1] = test system: PSMA-expressing LNCAP cancer xenografts; assay: Biodistribution of ^68Ga-labeled PSMA-targeting tracers; format: in vivo, mice
Procedure: as §1, §2
For biodistribution studies, the mice were injected with the radiotracer as described above. At predetermined time points (1 or 3 h for ^68Ga studies; 1, 4, 24, 72, or 120 h for ^177Lu studies), the mice was anesthetized with 2% isoflurane inhalation, and euthanized by CO2 inhalation. Blood was withdrawn immediately from the heart, and the organs/tissues of interest were collected. The collected organs/tissues were weighed and counted using a Perkin Elmer (Waltham, MA) Wizard2 2480 gamma counter. The uptake in each organ/tissue was normalized to the injected dose using a standard curve, and expressed as the percentage of the injected dose per gram of tissue (% ID/g).

SMILES: O=C([O-])CN1CCN(CC(=O)[O-])CCN(CC(=O)NC[C@H]2CC[C@H](C(=O)N[C@@H](Cc3c4ccccc4cc4ccccc34)C(=O)NCCCC[C@H](NC(=O)N[C@@H](CCC(=O)O)C(=O)O)C(=O)O)CC2)CCN(CC(=O)[O-])CC1.[68Ga+3] [^68Ga-HTK03041]
- uptake in PET/CT images (LNCaP tumors): higher uptake was observed in LNCap tumor xenografts, kidneys and urinary bladders
- Tissue (% ID/g): Adrenal glands ([1]; 1 h post-injection): 8.90 ± 2.56 % ID/g
- Tissue (% ID/g): Blood ([1]; 1 h post-injection): 1.43 ± 0.30 % ID/g
- Tissue (% ID/g): Bone ([1]; 1 h post-injection): 1.29 ± 0.45 % ID/g
- Tissue (% ID/g): Brain ([1]; 1 h post-injection): 0.10 ± 0.05 % ID/g
- Tissue (% ID/g): Fat ([1]; 1 h post-injection): 2.06 ± 0.59 % ID/g
- Tissue (% ID/g): Heart ([1]; 1 h post-injection): 1.82 ± 0.21 % ID/g
- Tissue (% ID/g): Intestine ([1]; 1 h post-injection): 1.14 ± 0.18 % ID/g
- Tissue (% ID/g): Kidneys ([1]; 1 h post-injection): 170 ± 26.4 % ID/g
- Tissue (% ID/g): Lacrimal ([1]; 1 h post-injection): 2.44 ± 1.79 % ID/g
- Tissue (% ID/g): Liver ([1]; 1 h post-injection): 1.38 ± 0.25 % ID/g
- Tissue (% ID/g): Lungs ([1]; 1 h post-injection): 4.32 ± 0.62 % ID/g
- Tissue (% ID/g): Muscle ([1]; 1 h post-injection): 0.75 ± 0.09 % ID/g
- Tissue (% ID/g): Pancreas ([1]; 1 h post-injection): 1.47 ± 0.16 % ID/g
- Tissue (% ID/g): Salivary ([1]; 1 h post-injection): 4.99 ± 0.88 % ID/g
- Tissue (% ID/g): Seminal ([1]; 1 h post-injection): 1.03 ± 0.27 % ID/g
- Tissue (% ID/g): Spleen ([1]; 1 h post-injection): 8.95 ± 3.22 % ID/g
- Tissue (% ID/g): Stomach ([1]; 1 h post-injection): 0.41 ± 0.11 % ID/g
- Tissue (% ID/g): Tail ([1]; 1 h post-injection): 1.36 ± 0.45 % ID/g
- Tissue (% ID/g): Testes ([1]; 1 h post-injection): 1.34 ± 0.22 % ID/g
- Tissue (% ID/g): Thyroid ([1]; 1 h post-injection): 2.48 ± 0.44 % ID/g
- Tissue (% ID/g): Tumor ([1]; 1 h post-injection): 23.1±6.11 % ID/g
- Tissue (% ID/g): Urine ([1]; 1 h post-injection): 173 ± 93.01 % ID/g
- tumor-to-background contrast ratio Tumor: Blood ([1]; 1 h post-injection): 17.3 ± 7.24
- tumor-to-background contrast ratio Tumor: Muscle ([1]; 1 h post-injection): 31.6 ± 12.1
- tumor-to-background contrast ratio Tumor: kidney ([1]; 1 h post-injection): 0.14 ± 0.04
- Tissue (% ID/g): Adrenal glands ([1]; 3 h post-injection): 4.04 ± 1.20 % ID/g
- Tissue (% ID/g): Blood ([1]; 3 h post-injection): 0.83 ± 0.27 % ID/g
- Tissue (% ID/g): Bone ([1]; 3 h post-injection): 0.98 ± 0.40 % ID/g
- Tissue (% ID/g): Brain ([1]; 3 h post-injection): 0.06 ± 0.02 % ID/g
- Tissue (% ID/g): Fat ([1]; 3 h post-injection): 1.06 ± 0.20 % ID/g
- Tissue (% ID/g): Heart ([1]; 3 h post-injection): 0.93 ± 0.17 % ID/g
- Tissue (% ID/g): Intestine ([1]; 3 h post-injection): 0.67 ± 0.09 % ID/g
- Tissue (% ID/g): Kidneys ([1]; 3 h post-injection): 121 ± 37.6 % ID/g
- Tissue (% ID/g): Lacrimal ([1]; 3 h post-injection): 2.82 ± 3.84 % ID/g
- Tissue (% ID/g): Liver ([1]; 3 h post-injection): 0.82 ± 0.15 % ID/g
- Tissue (% ID/g): Lungs ([1]; 3 h post-injection): 2.14 ± 0.39 % ID/g
- Tissue (% ID/g): Muscle ([1]; 3 h post-injection): 0.40 ± 0.06 % ID/g
- Tissue (% ID/g): Pancreas ([1]; 3 h post-injection): 0.71 ± 0.12 % ID/g
- Tissue (% ID/g): Salivary ([1]; 3 h post-injection): 2.11 ± 0.57 % ID/g
- Tissue (% ID/g): Seminal ([1]; 3 h post-injection): 4.56 ± 9.00 % ID/g
- Tissue (% ID/g): Spleen ([1]; 3 h post-injection): 4.19 ± 1.58 % ID/g
- Tissue (% ID/g): Stomach ([1]; 3 h post-injection): 0.26 ± 0.06 % ID/g
- Tissue (% ID/g): Tail ([1]; 3 h post-injection): 0.86 ± 0.73 % ID/g
- Tissue (% ID/g): Testes ([1]; 3 h post-injection): 0.89 ± 0.12 % ID/g
- Tissue (% ID/g): Thyroid ([1]; 3 h post-injection): 1.19 ± 0.23 % ID/g
- Tissue (% ID/g): Tumor ([1]; 3 h post-injection): 28.2±9.17 % ID/g
- Tissue (% ID/g): Urine ([1]; 3 h post-injection): 171 ± 93.3 % ID/g
- tumor-to-background contrast ratio Tumor: Blood ([1]; 3 h post-injection): 36.6 ± 15.4
- tumor-to-background contrast ratio Tumor: Muscle ([1]; 3 h post-injection): 73.8 ± 30.9
- tumor-to-background contrast ratio Tumor: kidney ([1]; 3 h post-injection): 0.26 ± 0.13
